Reference: patent publication US20260226031A1, “NOVEL COMPOUNDS” (NRG THERAPEUTICS LTD., priority 2023, published 2026)

Key:
mPTP [1] = experiment: mPTP activity (Ca2+ retention) assay in isolated rat liver mitochondria; format: biochemical; conditions: isolated rat liver mitochondria; Fluo5N fluorescence at 10 min after CaCl2 (75 μM) bolus; DMSO 0%, 5 μM cyclosporin A 100% inhibition
Procedure, shortened: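 Freshly isolated female Sprague Dawley rat liver mitochondria with succinate, rotenone and Fluo5N were preincubated 10 min at RT with compounds (final 30 μM to 1 nM), then challenged with CaCl2. Fluorescence at 10 min gave % inhibition versus DMSO (0%) and 5 μM cyclosporin A (100%); pIC50 calculated.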

mPTP [2] = experiment: mPTP activity (Ca2+ retention) assay in isolated rat brain mitochondria; format: biochemical; conditions: isolated rat brain mitochondria; Fluo5N fluorescence at 10 min after Ca2+ (75 μM) bolus
Procedure, shortened: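 Mitochondria freshly isolated from brains of perfused female Sprague Dawley rats, digitonin-treated, in pH 7.4 mannitol/MOPS/KCl buffer with pyruvate, malate, ADP and oligomycin A. Incubated with compound 10 min at RT with 2 μM Fluo5N. Fluorescence then read every 3 s for 10 min.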

SMILES | mPTP Rat liver pIC50* (mPTP [1]) | mPTP Rat brain pIC50 (mPTP [2])
O=C(c1noc(=O)[nH]1)N1CC(c2ccc(F)c(F)c2)C2(CCC2)C1 (single isomer, unassigned) [Example 47a, 3-(8-(3,4-difluorophenyl)-6-azaspiro[3.4]octane-6-carbonyl)-1,2,4-oxadiazol-5(4H)-one] | 5.75 | 7
O=C(c1cc(O)no1)N1CC(c2ccccc2)C2(CCC2)C1 (centres unmarked) [Example 22, (3-hydroxyisoxazol-5-yl)(8-phenyl-6-azaspiro[3.4]octan-6-yl)methanone] | 6.12 | 6.7
O=C(c1cc(O)no1)N1CC(c2ccc(F)cc2F)C2(CCC2)C1 (single isomer, unassigned) [Example 42a, (8-(2,4-difluorophenyl)-6-azaspiro[3.4]octan-6-yl)(3-hydroxyisoxazol-5-yl)methanone] | 6.26 | 6.99
Cn1nc(C(=O)N2C[C@H](c3ccccc3)C3(CCC3)C2)[nH]c1=O (single isomer, unassigned) [Example 5c] | <4.52 | <4.52
